These are literature values, as cited in US20040072825A1, “2-(2-(4-((2r)-2-methyl-3-(10h-phenothiazin-10-yl)propyl)-1-piperazinyl)-ethoxy) ethanol, process for the preparation thereof, pharmaceutical compositions containing said compound and therapeutic uses thereof” (priority 2000, published 2004).

This series deals with vomiting and nausea in cancerotherapy. As to conditions: patients in cancerotherapy, personal interview; cited from earlier work.

As for `Cc1nccn1CC1CCc2c(c3ccccc3n2C)C1=O` (centres unmarked) [ondansetron], the “effect on nausea (in words)” value is recorded as “no clear-cut effect against the nausea” and the “effect on vomiting (in words)” value is “clearly effective in preventing vomiting”.
